Test results as given in US20150031102A1, “METHODS AND COMPOSITIONS FOR ENHANCED PRODUCTION OF BUTANOL BY CLOSTRIDIA” (Butrolix LLC, priority 2012, published 2015).
“Also recorded” adds a separate entry of the source. Marks after values point to notes of the source that are not given here.

Tested on: C. acetobutylicum
Assay: Time course study of replicate 250 mL batch cultures (growth, butanol, residual glucose, yield, productivity)
Type: cell-based, Clostridium acetobutylicum
Conditions: for Increased butanol concentration versus untreated: 50 nM BP1106213; for Residual glucose: initial glucose 60 g/L; for Butanol yield from glucose: starting glucose 60 g/L
Protocol: Subsequently, time-course studies were conducted using the optimum peptide treatment level that was determined by the sequential batch transfer experiments. Untreated and peptide-treated cultures were grown in triplicate 250 mL batches that were inoculated with […] of the ninth sequential transfer from 24-well culture plates. The 1/1000 ratio of inoculum to culture volume was the same as that used throughout the prior sequential batch transfer experiments, and the replicate time course batch cultures corresponded to the 10th sequential batch transfer. Samples were recovered from the triplicate control and experimental batches a regular time intervals up to 96 hours of culture. Optical density of the replicates was measured and culture supernatants were recovered following centrifugation and analyzed later for butanol and residual glucose concentrations. The analyses were used to calculate yield and productivity of the cultures.
Clostridium acetobutylicum strain ATCC 824 was used in all experiments and the growth medium used for sequential batch transfer, time course, and continuous culture experiments contained yeast extract, casamino acids, L-cysteine, L-asparagine, phosphate buffer, trace minerals, and 6% glucose. What are believed to be quorum-sensing peptides that were used in the experiments were chemically synthesized peptides SEQ ID NO: 143 (amino acid sequence: SYPGWSW) and SEQ ID NO: 144 (amino acid sequence: ILILISG). Routine growth of the bacteria as well as the sequential batch and time course experiments were conducted in a Form a Scientific Model 1029 anaerobic gas chamber at 32° C. Continuous cultures were performed at 32° C. using duplicate New Brunswick Scientific BioFlo 3000 apparati with a dilution rate of 0.01 volume per hour, 75 rpm agitation, and nitrogen gas sparging. Optical density of culture samples was measured at 600 nm in a Beckman DU 600 series spectrophotometer and glucose was analyzed using a YSI Model 2700 Select Biochemistry Analyzer with internal glucose calibration. Butanol concentrations were determined by measuring experimental and standard samples using a Varian Saturn 3 Gas Chromatograph/Mass Spectrometer and calculating butanol concentrations using standard curves.
(§1) The study was started by inoculating triplicate 250 mL batches of untreated and peptide-treated medium with 250 μL of the corresponding ninth sequential transfer from 24-well culture plates. Therefore, the replicate time course batch cultures corresponded to the 10th sequential batch transfer. Samples were recovered from the triplicate control and experimental batches at regular time intervals up to 96 hours of culture for measurement of optical density at 600 nm and analysis of butanol and residual glucose concentrations.
as §1, with “Like the previous time course experiment, this” for “The”, “As before, samples” for “Therefore, the replicate time course batch cultures corresponded to the 10th sequential batch transfer. Samples”, “density” for “density at 600 nm”

[1] = 50 nM peptide, 0 hours, average ± SD of triplicate, second time course study
[2] = 50 nM peptide, 6 hours, average ± SD of triplicate, second time course study
[3] = 50 nM peptide, 12 hours, average ± SD of triplicate, second time course study
[4] = 50 nM peptide, 15 hours, average ± SD of triplicate, second time course study
[5] = 50 nM peptide, 18 hours, average ± SD of triplicate, second time course study
[6] = 50 nM peptide, 21 hours, average ± SD of triplicate, second time course study
[7] = 50 nM peptide, 24 hours, average ± SD of triplicate, second time course study
[8] = 50 nM peptide, 27 hours, average ± SD of triplicate, second time course study
[9] = 50 nM peptide, 30 hours, average ± SD of triplicate, second time course study
[10] = 50 nM peptide, 33 hours, average ± SD of triplicate, second time course study
[11] = 50 nM peptide, 36 hours, average ± SD of triplicate, second time course study
[12] = 50 nM peptide, 48 hours, average ± SD of triplicate, second time course study
[13] = 50 nM peptide, 72 hours, average ± SD of triplicate, second time course study
[14] = 50 nM peptide, 96 hours, average ± SD of triplicate, second time course study

In the case of “ILILISG (Derived from Clostridium acetobutylicum SEQ ID NO: 110) [peptide SEQ ID NO: 144]”, the “Increased butanol concentration versus untreated” value (72 hours of culture growth) is reported as no more than 15%, the “Increased butanol concentration versus untreated” value (96 hours of culture growth) is reported as no more than 21% and the Butanol concentration [1] is reported as 0.23 ± 0.00 g/L. It also gave a Residual glucose [1] of 59.1 ± 0.9 g/L, a Butanol concentration [2] of 0.24 ± 0.00 g/L and a Residual glucose [2] of 59.8 ± 0.9 g/L. The Butanol concentration [3] was 0.26 ± 0.01^c g/L, the Residual glucose [3] was 60.7 ± 0.8 g/L and the Butanol concentration [4] was 0.26 ± 0.01^c g/L. The Residual glucose [4] was 58.4 ± 0.5 g/L, the Butanol concentration [5] was 0.28 ± 0.01^c g/L and the Residual glucose [5] was 57.4 ± 0.7 g/L. The Butanol concentration [6] was 0.32 ± 0.01 g/L, the Residual glucose [6] was 60.6 ± 0.8 g/L and the Butanol concentration [7] was 0.52 ± 0.01^c g/L. For the same substance, the Residual glucose [7] was 49.4 ± 0.7 g/L, the Butanol concentration [8] was 0.64 ± 0.01 g/L and the Residual glucose [8] was 50.4 ± 1.9 g/L. For the same substance, the Butanol concentration [9] was 0.70 ± 0.04 g/L, the Residual glucose [9] was 49.7 ± 1.9 g/L and the Butanol concentration [10] was 0.82 ± 0.03 g/L. It also gave a Residual glucose [10] of 47.6 ± 1.2 g/L, a Butanol concentration [11] of 0.82 ± 0.03 g/L and a Residual glucose [11] of 47.4 ± 1.3 g/L. For the same substance, the Butanol concentration [12] was 1.00 ± 0.03 g/L, the Residual glucose [12] was 44.9 ± 0.5 g/L and the Butanol concentration [13] was 1.17 ± 0.12^c g/L. The Residual glucose [13] was 44.1 ± 3.1 g/L, the Butanol concentration [14] was 0.98 ± 0.07 g/L and the Residual glucose [14] was 46.4 ± 0.9^c g/L.

For SYPGWSW [peptide SEQ ID NO: 143], the Residual glucose (50 nM peptide, 0 hours, average ± SD of triplicate) was 53.7 ± 0.9 g/L, the “Butanol yield from glucose” value (50 nM peptide, 0 hours) was 0.001 g butanol/g glucose and the Residual glucose (50 nM peptide, 6 hours, average ± SD of triplicate) was 56.2 ± 0.4 g/L. For the same substance, the “Butanol yield from glucose” value (50 nM peptide, 6 hours) was 0.001 g butanol/g glucose, the Residual glucose (50 nM peptide, 12 hours, average ± SD of triplicate) was 56.1 ± 0.7 g/L and the “Butanol yield from glucose” value (50 nM peptide, 12 hours) was 0.001 g butanol/g glucose. For the same substance, the Residual glucose (50 nM peptide, 18 hours, average ± SD of triplicate) was 54.7 ± 0.2^c g/L, the “Butanol yield from glucose” value (50 nM peptide, 18 hours) was 0.002 g butanol/g glucose and the Residual glucose (50 nM peptide, 21 hours, average ± SD of triplicate) was 52.0 ± 0.3 g/L. The “Butanol yield from glucose” value (50 nM peptide, 21 hours) was 0.002 g butanol/g glucose, the Residual glucose (50 nM peptide, 24 hours, average ± SD of triplicate) was 49.7 ± 0.5^c g/L and the “Butanol yield from glucose” value (50 nM peptide, 24 hours) was 0.003 g butanol/g glucose. The Residual glucose (50 nM peptide, 27 hours, average ± SD of triplicate) was 46.4 ± 0.4 g/L, the “Butanol yield from glucose” value (50 nM peptide, 27 hours) was 0.007 g butanol/g glucose and the Residual glucose (50 nM peptide, 30 hours, average ± SD of triplicate) was 46.6 ± 0.4 g/L. The “Butanol yield from glucose” value (50 nM peptide, 30 hours) was 0.011 g butanol/g glucose, the Residual glucose (50 nM peptide, 33 hours, average ± SD of triplicate) was 45.9 ± 0.6 g/L and the “Butanol yield from glucose” value (50 nM peptide, 33 hours) was 0.032 g butanol/g glucose. For the same substance, the Residual glucose (50 nM peptide, 36 hours, average ± SD of triplicate) was 46.2 ± 0.5 g/L, the “Butanol yield from glucose” value (50 nM peptide, 36 hours) was 0.032 g butanol/g glucose and the Residual glucose (50 nM peptide, 48 hours, average ± SD of triplicate) was 45.7 ± 0.3 g/L. The “Butanol yield from glucose” value (50 nM peptide, 48 hours) was 0.033 g butanol/g glucose, the Residual glucose (50 nM peptide, 72 hours, average ± SD of triplicate) was 45.8 ± 0.1 g/L and the “Butanol yield from glucose” value (50 nM peptide, 72 hours) was 0.028 g butanol/g glucose. The Residual glucose (50 nM peptide, 96 hours, average ± SD of triplicate) was 45.8 ± 0.2^c g/L, the “Butanol yield from glucose” value (50 nM peptide, 96 hours) was 0.029 g butanol/g glucose and the Butanol productivity (50 nM peptide, sampling interval ending at 6 hours) was 0.000 g butanol/L-h. The Butanol productivity (50 nM peptide, sampling interval ending at 12 hours) was 0.000 g butanol/L-h, the Butanol productivity (50 nM peptide, sampling interval ending at 18 hours) was 0.010 g butanol/L-h and the Butanol productivity (50 nM peptide, sampling interval ending at 21 hours) was 0.004 g butanol/L-h. For the same substance, the Butanol productivity (50 nM peptide, sampling interval ending at 24 hours) was 0.024 g butanol/L-h, the Butanol productivity (50 nM peptide, sampling interval ending at 27 hours) was 0.074 g butanol/L-h and the Butanol productivity (50 nM peptide, sampling interval ending at 30 hours) was 0.069 g butanol/L-h. For the same substance, the Butanol productivity (50 nM peptide, sampling interval ending at 33 hours) was 0.377 g butanol/L-h, the Butanol productivity (50 nM peptide, sampling interval ending at 36 hours) was 0.002 g butanol/L-h and the Butanol productivity (50 nM peptide, sampling interval ending at 48 hours) was 0.002 g butanol/L-h. The Butanol productivity (50 nM peptide, sampling interval ending at 72 hours) was −0.011 g butanol/L-h, the Butanol productivity (50 nM peptide, sampling interval ending at 96 hours) was 0.002 g butanol/L-h and the “Butanol concentration relative to untreated cultures” value (50 nM, 33 hours) was “more than double”. For the same substance, the “Yield of butanol relative to untreated cultures” value (50 nM, 33 hours) was “more than double”, the “Butanol yield increase compared to untreated culture” value (50 nM, end of the study (96 hours of growth)) was 53% and the “Butanol productivity relative to untreated cultures” value (50 nM, peak butanol formation stage (between 24 and 33 hours), listed as BP110517) was “nearly doubled; also recorded: more than doubled”. For the same substance, the “Increase in butanol yield” value (BP110517, batch cultures (summary of findings)) was “more than 50%”, the Butanol concentration (Treated, 50 nM, 0 hours, average and standard deviation of triplicate samples) was 0.06 ± 0.00 g/L and the Butanol concentration (Treated, 50 nM, 6 hours, average and standard deviation of triplicate samples) was 0.06 ± 0.00 g/L. The Butanol concentration (Treated, 50 nM, 12 hours, average and standard deviation of triplicate samples) was 0.06 ± 0.00 g/L, the Butanol concentration (Treated, 50 nM, 18 hours, average and standard deviation of triplicate samples) was 0.09 ± 0.00^c g/L and the Butanol concentration (Treated, 50 nM, 21 hours, average and standard deviation of triplicate samples) was 0.10 ± 0.00 g/L. For the same substance, the Butanol concentration (Treated, 50 nM, 24 hours, average and standard deviation of triplicate samples) was 0.17 ± 0.01^c g/L, the Butanol concentration (Treated, 50 nM, 27 hours, average and standard deviation of triplicate samples) was 0.39 ± 0.03^c g/L and the Butanol concentration (Treated, 50 nM, 30 hours, average and standard deviation of triplicate samples) was 0.60 ± 0.03^c g/L. For the same substance, the Butanol concentration (Treated, 50 nM, 33 hours, average and standard deviation of triplicate samples) was 1.73 ± 0.27^c g/L, the Butanol concentration (Treated, 50 nM, 36 hours, average and standard deviation of triplicate samples) was 1.74 ± 0.16 g/L and the Butanol concentration (Treated, 50 nM, 48 hours, average and standard deviation of triplicate samples) was 1.76 ± 0.26^c g/L. The Butanol concentration (Treated, 50 nM, 72 hours, average and standard deviation of triplicate samples) was 1.48 ± 0.29 g/L and the Butanol concentration (Treated, 50 nM, 96 hours, average and standard deviation of triplicate samples) was 1.53 ± 0.29 g/L.
